This note sets out measurements from ChEMBL document CHEMBL3046008, “Phenolics and their antifungal role in grapevine wood decay: focus on the Botryosphaeriaceae family” (J Agric Food Chem, 2012).

Structures are written as SMILES. Activity calls are given as the source filed them. No cut-off for these calls is given here.

Assay [1] has as its system Phaeoacremonium minimum. As to the kind of experiment: Antifungal activity against Togninia minima SO21 assessed as susceptibility at 500 uM measured after 1 to 10 days. It is filed as functional, organism-based.
In assay [2] the test system is Neofusicoccum parvum. In words: Antifungal activity against Neofusicoccum parvum assessed as growth inhibition at 500 uM measured after 1 to 10 days relative to control. The format is functional.
Assay [3] deals with Diplodia seriata. As to the kind of experiment: Antifungal activity against Diplodia seriata assessed as growth inhibition measured after 1 to 10 days. It is filed as functional, organism-based.
Assay [4] deals with Diplodia seriata. In words: Antifungal activity against Diplodia seriata assessed as growth inhibition at 500 uM measured after 1 to 10 days relative to control. It is filed as functional.
Assay [5] deals with Eutypa lata. As to the kind of experiment: Antifungal activity against Eutypa lata BX1-10 assessed as growth inhibition at 500 uM measured after 1 to 10 days relative to control. It is filed as functional.
Assay [6] concerns Eutypa lata. As to the kind of experiment: Induction of Eutypa lata BX1-10 growth at 500 uM. The format is functional, organism-based.
The subject of assay [7] is Phaeomoniella chlamydospora. As to the kind of experiment: Antifungal activity against Phaeomoniella chlamydospora assessed as growth inhibition at 500 uM measured after 1 to 10 days relative to control. It is filed as functional.
Assay [8] has as its system Diplodia seriata. In words: Antifungal activity against Diplodia seriata assessed as mycelium denser around the initial plug and colonizing measured after 2 days by macroscopic analysis. It is filed as functional, organism-based.
Assay [9] concerns Diplodia seriata. As to the kind of experiment: Antifungal activity against Diplodia seriata assessed as mycelium seemed to be halted measured after 2 days environmental scanning electron microscopy. It is filed as functional, organism-based.
The subject of assay [10] is Eutypa lata. As to the kind of experiment: Antifungal activity against Eutypa lata BX1-10 assessed as growth inhibition measured after 1 to 10 days. It is filed as functional, organism-based.
Assay [11] deals with Neofusicoccum parvum. In words: Antifungal activity against Neofusicoccum parvum assessed as growth inhibition measured after 1 to 10 days. The format is functional, organism-based.

Consider `Oc1cc(O)cc(/C=C/c2ccc(O)c(O)c2)c1` [PICEATANNOL], for which the outcome in [1] was inactive. In addition, the “growth inhibition (GI)” value in [2] and in assay [4] was “Active” in each case. Also, the IC50 (commonly the point on the concentration scale where inhibition reaches its midpoint) in assay [3] came out at 299 µM.
For the compound `Oc1ccc([C@H]2Oc3cc(O)cc(/C=C/c4ccc5c(c4)[C@@H](c4cc(O)cc6c4[C@H](c4cc(O)cc(O)c4)[C@@H](c4ccc(O)cc4)O6)[C@H](c4ccc(O)cc4)O5)c3[C@@H]2c2cc(O)cc(O)c2)cc1`, the result in [1] was inactive. For the same compound, the “growth inhibition (GI)” value in assay [2] and in assay [4] was “Active” in each case.
As for `COc1cc(C(=O)O)cc(OC)c1O`, the result in assay [1] was inactive.
On the same count and under the same terms, for `O=C(O[C@@H]1Cc2c(O)cc(O)cc2O[C@@H]1c1ccc(O)c(O)c1)c1cc(O)c(O)c(O)c1` the value was “inactive”; for `O=C(O)/C=C/c1ccc(O)c(O)c1`, “inactive”; for `Oc1cc(O)c2c(c1)O[C@H](c1ccc(O)c(O)c1)[C@@H](O)C2`, “inactive”.
For `OC[C@H]1O[C@@H](Oc2cc(O)cc(/C=C/c3ccc(O)cc3)c2)[C@H](O)[C@@H](O)[C@@H]1O`, in assay [1], the outcome was inactive. For the same compound, the “growth inhibition (GI)” value in assay [2] and in [4] was “Active” each time.
`Oc1cc(O)c2c(c1)O[C@H](c1ccc(O)c(O)c1)[C@H](O)C2`: the result in assay [1] was inactive.
For `COc1cc(/C=C/C(=O)O)cc(OC)c1O`, in assay [1], the outcome was inactive.
On to `Oc1ccc([C@H]2c3c(O)cc(O)cc3[C@H]3c4c(cc(O)cc4[C@@H]2c2cc(/C=C/c4cc(O)cc5c4[C@H](c4cc(O)cc(O)c4)[C@@H](c4ccc(O)cc4)O5)ccc2O)O[C@@H]3c2ccc(O)cc2)cc1`, for which the result in [1] was inactive. In addition, the “growth inhibition (GI)” value in [2] and in [4] was “Active” in each case.
In the case of `Oc1ccc(/C=C/c2cc(O)cc(O)c2)cc1` [RESVERATROL], the “fold change (FC)” value in assay [5] is on record as 1.7; in assay [2], 1.1; in [4], 1.6. Moreover, the outcome in assay [1] was inactive.
Take `O=c1c(O)c(-c2ccc(O)c(O)c2)oc2cc(O)cc(O)c12`: the result in [1] was inactive. For the same compound, the result in assay [6] was Active.
On to `COc1cc(C(=O)O)ccc1O`, for which, in assay [1], the result was inactive.
Regarding `Oc1ccc([C@H]2c3c(O)cc(O)cc3[C@H]3c4c(cc(O)cc4[C@@H]2O)O[C@@H]3c2ccc(O)cc2)cc1`, the result in [1] was inactive. Also, the “growth inhibition (GI)” value in [2] and in [4] was “Active” throughout.
Regarding `O=C(O)c1cc(O)c(O)c(O)c1`, the result in assay [1] was inactive.
In the case of `Oc1ccc(/C=C/c2cc(O)cc3c2[C@@H](c2cc(O)cc(O)c2)[C@H](c2ccc(O)cc2)O3)cc1` [EPSILON-VINIFERIN], the outcome in [1] was inactive. Also, the “growth inhibition (GI)” value in assay [2] and in assay [4] was “Active” in each case. Moreover, the IC50 in assay [3] turned out to be 260 µM.
Regarding `COc1cc(/C=C/C(=O)O)ccc1O` [FERULATE], the “fold change (FC)” value turned out to be 2.2 in assay [5], 1.4 in [7], 1.5 in [2] and 1.6 in assay [4]. Further, the result in [1] was inactive.
Turning to `O=C(O)/C=C/c1ccc(O)cc1`, the outcome in [1] was inactive.
Consider `COc1cc(/C=C/c2ccc(O)cc2)cc(OC)c1` [PTEROSTILBENE], for which the outcome in [1] was inactive. In addition, the “growth inhibition (GI)” value in assay [2] and in [4] was “Active” in each case. The IC50 amounted to 163 µM in assay [3], 251 µM in [10] and 250 µM in assay [11]. Moreover, the outcome in assay [8] and in assay [9] was Active.
For the compound `O=C(/C=C/c1ccc(O)c(O)c1)O[C@@H]1C[C@](O)(C(=O)O)C[C@@H](O)[C@H]1O`, the outcome in [1] was inactive.
Consider `O=c1c(O)c(-c2ccc(O)cc2)oc2cc(O)cc(O)c12`, for which the “growth inhibition (GI)” value in [5] is “inactive”. For the same compound, in assay [1], the outcome was inactive.
